From ChEMBL document CHEMBL4382249, “1-Arylsulfonyl indoline-benzamides as a new antitubulin agents, with inhibition of histone deacetylase” (Eur J Med Chem, 2019)
The source made the active and inactive calls. The rule behind the calls is not given here.

Experiments:
Histone deacetylase 7 = target: T1, Histone deacetylase 7 (Homo sapiens, UniProt Q8WUI4); experiment: Inhibition of human HDAC7 using fluorogenic p53 (379-382) peptide RHKK(Ac) as substrate by fluorescence assay
T1 sequence (Q8WUI4 whole entry): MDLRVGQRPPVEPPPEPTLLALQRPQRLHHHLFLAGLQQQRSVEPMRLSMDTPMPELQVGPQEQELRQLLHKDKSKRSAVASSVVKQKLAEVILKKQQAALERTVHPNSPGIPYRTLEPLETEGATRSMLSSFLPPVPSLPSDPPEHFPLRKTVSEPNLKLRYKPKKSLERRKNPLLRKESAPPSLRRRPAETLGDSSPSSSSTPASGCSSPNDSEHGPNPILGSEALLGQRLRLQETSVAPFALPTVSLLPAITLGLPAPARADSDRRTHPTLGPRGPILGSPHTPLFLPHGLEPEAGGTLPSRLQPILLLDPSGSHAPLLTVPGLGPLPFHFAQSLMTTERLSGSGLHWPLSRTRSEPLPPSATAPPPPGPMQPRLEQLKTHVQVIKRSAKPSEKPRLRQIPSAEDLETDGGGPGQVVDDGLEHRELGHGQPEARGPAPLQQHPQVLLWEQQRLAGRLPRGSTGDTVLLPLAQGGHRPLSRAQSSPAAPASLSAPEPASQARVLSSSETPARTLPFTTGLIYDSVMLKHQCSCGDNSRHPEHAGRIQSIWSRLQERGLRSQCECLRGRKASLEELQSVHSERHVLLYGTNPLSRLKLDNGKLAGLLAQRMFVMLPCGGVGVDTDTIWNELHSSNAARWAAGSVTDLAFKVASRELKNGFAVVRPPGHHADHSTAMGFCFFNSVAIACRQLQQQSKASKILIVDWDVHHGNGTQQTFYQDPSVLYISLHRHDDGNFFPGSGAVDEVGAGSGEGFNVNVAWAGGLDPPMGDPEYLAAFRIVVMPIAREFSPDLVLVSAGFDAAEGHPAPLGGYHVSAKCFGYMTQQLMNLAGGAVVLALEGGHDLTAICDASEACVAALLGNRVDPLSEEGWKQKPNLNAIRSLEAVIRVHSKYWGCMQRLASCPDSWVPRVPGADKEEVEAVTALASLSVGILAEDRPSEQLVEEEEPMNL

[1] = Toxicity in NOD/SCID mouse xenografted with human BJAB cells assessed as change in body weight at 50 mg/kg, iv daily for 5 days/week measured on day 25 post first dose; format: organism-based; details: in vivo, 120 h
BJAB [2] = experiment: Growth inhibition of human BJAB cells assessed as cell viability at 40 nM after 48 hrs by MTT assay (reference value: 100%)
Histone deacetylase 2 = Histone deacetylase 2 (Homo sapiens, UniProt Q92769); experiment: Inhibition of human HDAC2 using RHKKAc as substrate by fluorescence assay
Histone deacetylase 1 = Histone deacetylase 1 (Homo sapiens, UniProt Q13547); experiment: Inhibition of human HDAC1 using RHKKAc as substrate by fluorescence assay
Histone deacetylase 8 = target: T2, Histone deacetylase 8 (Homo sapiens, UniProt Q9BY41)
T2 sequence (Q9BY41 whole entry): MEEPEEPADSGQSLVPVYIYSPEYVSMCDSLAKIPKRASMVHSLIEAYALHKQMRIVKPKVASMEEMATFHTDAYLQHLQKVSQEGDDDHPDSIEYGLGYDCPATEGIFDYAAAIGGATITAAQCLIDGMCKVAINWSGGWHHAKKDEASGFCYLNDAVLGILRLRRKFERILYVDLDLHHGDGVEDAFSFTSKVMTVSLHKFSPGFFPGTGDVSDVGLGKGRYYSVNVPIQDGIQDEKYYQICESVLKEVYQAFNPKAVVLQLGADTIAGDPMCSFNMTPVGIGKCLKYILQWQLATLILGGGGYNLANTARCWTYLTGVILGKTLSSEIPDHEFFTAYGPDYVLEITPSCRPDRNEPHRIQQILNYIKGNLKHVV

[3] = target: T3, Protein deacetylase HDAC6 (Homo sapiens) (UniProt Q9UBN7); experiment: Inhibition of human HDAC6 in human A549 cells assessed as increase in acetylated alpha-tubulin level at 0.6 to […] after 6 hrs by Western blot analysis; format: cell-based
T3 sequence (whole entry): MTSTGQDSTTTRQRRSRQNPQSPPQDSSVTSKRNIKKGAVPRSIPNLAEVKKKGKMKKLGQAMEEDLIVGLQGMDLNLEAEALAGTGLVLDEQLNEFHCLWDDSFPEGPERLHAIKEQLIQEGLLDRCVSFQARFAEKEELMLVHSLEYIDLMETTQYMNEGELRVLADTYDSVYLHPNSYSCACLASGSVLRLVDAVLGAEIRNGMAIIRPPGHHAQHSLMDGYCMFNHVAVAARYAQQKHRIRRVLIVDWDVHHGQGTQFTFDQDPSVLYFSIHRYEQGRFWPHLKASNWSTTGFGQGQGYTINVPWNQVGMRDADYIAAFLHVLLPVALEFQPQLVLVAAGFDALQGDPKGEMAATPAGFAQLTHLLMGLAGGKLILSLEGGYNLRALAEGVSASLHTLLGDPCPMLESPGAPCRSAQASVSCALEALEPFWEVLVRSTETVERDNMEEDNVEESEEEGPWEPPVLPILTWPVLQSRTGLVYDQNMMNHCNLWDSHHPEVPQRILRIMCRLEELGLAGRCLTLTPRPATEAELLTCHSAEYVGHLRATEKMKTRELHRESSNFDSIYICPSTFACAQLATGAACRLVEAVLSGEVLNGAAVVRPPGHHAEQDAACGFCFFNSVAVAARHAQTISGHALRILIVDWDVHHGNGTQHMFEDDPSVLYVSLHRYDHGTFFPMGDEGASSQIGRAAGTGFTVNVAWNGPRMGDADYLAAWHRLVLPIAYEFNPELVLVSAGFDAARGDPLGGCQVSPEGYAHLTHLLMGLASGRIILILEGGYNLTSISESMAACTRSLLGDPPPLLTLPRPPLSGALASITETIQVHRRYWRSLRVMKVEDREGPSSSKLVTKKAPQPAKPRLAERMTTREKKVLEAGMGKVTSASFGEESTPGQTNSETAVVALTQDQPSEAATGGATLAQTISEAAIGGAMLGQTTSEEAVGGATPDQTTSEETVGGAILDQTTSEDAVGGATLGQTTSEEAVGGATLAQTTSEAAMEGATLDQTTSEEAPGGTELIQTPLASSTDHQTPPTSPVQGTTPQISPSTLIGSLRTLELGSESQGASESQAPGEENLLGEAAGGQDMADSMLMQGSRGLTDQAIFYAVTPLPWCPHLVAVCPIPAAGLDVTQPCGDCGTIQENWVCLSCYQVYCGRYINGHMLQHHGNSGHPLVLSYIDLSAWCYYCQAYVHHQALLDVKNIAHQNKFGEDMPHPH

Tubulin (Bos taurus) = Tubulin (Bos taurus) (UniProt Q6B856+Q862L2+Q862F3); details: at 5 µM
BJAB [4] = experiment: Growth inhibition of human BJAB cells after 48 hrs by MTT assay

Sequence of Histone deacetylase 1 (Q13547 whole entry): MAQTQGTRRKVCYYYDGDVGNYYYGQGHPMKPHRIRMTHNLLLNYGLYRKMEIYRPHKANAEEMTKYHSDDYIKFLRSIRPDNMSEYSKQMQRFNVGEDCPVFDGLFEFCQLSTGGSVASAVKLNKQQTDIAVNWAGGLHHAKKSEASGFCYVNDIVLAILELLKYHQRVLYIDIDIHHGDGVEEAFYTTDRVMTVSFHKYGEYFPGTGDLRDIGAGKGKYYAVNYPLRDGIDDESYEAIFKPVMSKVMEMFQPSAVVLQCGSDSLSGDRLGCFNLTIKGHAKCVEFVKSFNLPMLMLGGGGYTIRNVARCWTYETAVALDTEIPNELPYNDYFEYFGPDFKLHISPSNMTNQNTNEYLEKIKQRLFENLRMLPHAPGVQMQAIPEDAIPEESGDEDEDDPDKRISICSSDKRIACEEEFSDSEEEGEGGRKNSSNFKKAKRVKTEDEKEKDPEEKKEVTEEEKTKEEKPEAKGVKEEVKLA
Sequence of Histone deacetylase 2 (Q92769 whole entry): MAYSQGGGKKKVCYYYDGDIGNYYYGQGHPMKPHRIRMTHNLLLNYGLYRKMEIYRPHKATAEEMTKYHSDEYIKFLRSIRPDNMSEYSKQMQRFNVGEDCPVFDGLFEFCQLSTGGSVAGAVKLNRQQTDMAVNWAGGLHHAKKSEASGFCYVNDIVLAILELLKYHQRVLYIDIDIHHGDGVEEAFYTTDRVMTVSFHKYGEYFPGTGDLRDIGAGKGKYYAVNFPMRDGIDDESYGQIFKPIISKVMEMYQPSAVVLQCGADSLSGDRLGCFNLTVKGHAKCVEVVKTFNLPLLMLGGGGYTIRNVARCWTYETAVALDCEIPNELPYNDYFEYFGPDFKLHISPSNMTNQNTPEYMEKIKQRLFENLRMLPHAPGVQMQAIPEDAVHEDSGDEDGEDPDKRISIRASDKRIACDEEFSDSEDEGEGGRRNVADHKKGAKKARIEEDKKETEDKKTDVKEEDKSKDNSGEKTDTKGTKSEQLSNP

IC50 (Histone deacetylase 7): Not Active | IC50 (Histone deacetylase 2): 662 nM | IC50 (Histone deacetylase 1): 221 nM | IC50 (Histone deacetylase 8): Not Active | inhibition [3]: Active | inhibition (Tubulin (Bos taurus)): 85.2%
SMILES: COc1ccc(S(=O)(=O)N2CCc3cccc(NCc4ccc(C(=O)Nc5ccccc5N)cc4)c32)cc1
Activity [1]: Non-Toxic | viability at 0.04 µM (BJAB [2]): 50% | IC50 (BJAB [4]): 40 nM
